Measurements reported in US20240327408A1, “COMPOUNDS CONTAINING TETRAHYDRONAPHTHYRIDINONE OR TETRAHYDROPYRIDOPYRIMIDINONE SKELETON, PREPARATION METHOD THEREFOR AND PHARMACEUTICAL USE THEREOF” (CHINA PHARMACEUTICAL UNIVERSITY, priority 2021, published 2024).
Like-named read-outs stand apart in the source and are kept apart here.

Assays:
MV4; 11 cells = assay: inhibiting the growth of MV4; 11 cells; assay type: cell-based
hClpP = molecular target: T1, hClpP (Homo sapiens, UniProt Q16740); assay: activating ClpP hydrolysis of FITC-casein (fluorescence kinetic detection); assay type: biochemical; conditions: hClpP 1 μM, FITC-Casein 4 μM, 37° C.
T1 construct: made in house
Method: The specific procedures were as follows:
Test compounds were each prepared into a 100 mM stock solution in DMSO and stored. and 1 μL of stock solution of each of the compounds was taken and diluted to 10 mM by adding 9 μL of DMSO for later use.
The compounds of formula I of the present invention were each diluted at concentrations of 200 μM, 50 μM, 10 μM, 2 μM, 500 nM, 100 nM, 20 nM, and 2 nM in an assay buffer. 50 μL of each of the compounds at different concentrations was added to each well, with 2 replicate wells.
The protein was diluted to 4 μM in an assay buffer. 25 μL of protein was added to each well, and incubated at 37° C. for 30 min. The final concentration was 1 μM.
25 μL of FITC-Casein was added to each well. The final concentration was 4 μM. The mixture was immediately loaded on the machine for detection.
FITC-Casein and FITC-Casein+ClpP were used as negative controls.
The detection temperature was 37° C. The plate was shaken for 3 s. […] Kinetic parameters were set, and scanning was performed once every 1 min for 15 min.

T1 sequence (Q16740 57-277): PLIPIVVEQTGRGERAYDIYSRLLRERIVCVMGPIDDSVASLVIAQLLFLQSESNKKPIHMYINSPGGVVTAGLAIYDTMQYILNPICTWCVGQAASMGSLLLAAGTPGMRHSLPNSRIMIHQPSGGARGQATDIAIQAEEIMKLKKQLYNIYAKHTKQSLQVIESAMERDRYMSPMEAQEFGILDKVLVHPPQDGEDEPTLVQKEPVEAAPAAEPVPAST

| Structure (SMILES) | IC50 (MV4; 11 cells; Homo sapiens) [µM] | EC50 (hClpP) [µM] | IC50 (MV4; 11 cells) [µM] |
| --- | --- | --- | --- |
| O=c1c2c(c3cccnc3n1Cc1ccccc1)CCN(CC1CC1)C2 [Compound I-1, 6-benzyl-3-(cyclopropylmethyl)-2,3,4,6-tetrahydropyrido[3,4-c][1,8]naphthyridine-5-(1H)-one] | 1 to 10 | 10 to 100 | – |
| COc1ccc(CN2CCc3c(c(=O)n(Cc4ccccc4)c4ncccc34)C2)cc1 [Compound I-23, 6-benzyl-3-(4-methoxybenzyl)-2,3,4,6-tetrahydropyrido[3,4-c][1,8]naphthyridine-5-(1H)-one] | < 1 | 1 to 10 | – |
| Cn1cnc(Cn2c(=O)c3c(c4cccnc42)CCN(Cc2ccccc2)C3)c1 [Compound I-66, 3-benzyl-6-((1-methyl-1H-imidazol-4-yl)methyl)-2,3,4,6-tetrahydropyrido[3,4-c][1,8]naphthyridine-5-(1H)-one] | 1 to 10 | 10 to 100 | – |
| O=c1c2c(n3ccnc3n1Cc1ccc(C(F)(F)F)cc1)CCN(Cc1ccccc1)C2 [Compound I-127, 7-benzyl-4-(4-trifluoromethylbenzyl)-6,7,8,9-tetrahydroimidazo[1,2-a]pyrido[3,4-e]pyrimidine-5(4H)-one] | < 1 | < 1 | – |
| O=c1c2c(c3cccnc3n1Cc1ccc(C(F)(F)F)cc1)CCN(Cc1ccccc1)C2 [Compound I-70, 3-benzyl-6-(4-(trifluoromethyl)benzyl)-2,3,4,6-tetrahydropyrido[3,4-c][1,8]naphthyridine-5-(1H)-one] | < 1 | < 1 | – |
| Cc1ccc(Cn2c(=O)c3c(n4ccnc24)CCN(Cc2cccc(F)c2)C3)cc1 [Compound I-133, 7-(3-fluorobenzyl)-4-(4-methylbenzyl)-6,7,8,9-tetrahydroimidazo[1,2-a]pyrido[3,4-e]pyrimidine-5(4H)-one] | < 1 | < 1 | – |
| O=c1c2c(n3ncnc3n1Cc1ccc(Cl)cc1)CCN(Cc1cccc(Cl)c1)C2 [Compound I-154, 4-(4-chlorobenzyl)-7-(3-chlorobenzyl)-6,7,8,9-tetrahydropyrido[3,4-e][1,2,4]triazolo[1,5-a]pyrimidine-5(4H)-one] | 1 to 10 | 1 to 10 | – |
| CCc1ccc(Cn2c(=O)c3c(c4cccnc42)CCN(Cc2cccc(C#N)c2)C3)cc1 [Compound I-94, 6-(4-ethylbenzyl)-3-(3-cyanobenzyl)-2,3,4,6-tetrahydropyrido[3,4-c][1,8]naphthyridine-5-(1H)-one] | < 1 | < 1 | – |
| O=c1c2c(c3cccnc3n1Cc1ccccc1)CCN(Cc1cccc(Br)c1)C2 [Compound I-14, 6-benzyl-3-(3-bromobenzyl)-2,3,4,6-tetrahydropyrido[3,4-c][1,8]naphthyridine-5-(1H)-one] | < 1 | < 1 | – |
| N#Cc1cccc(CN2CCc3c(c(=O)n(Cc4ccc(Cl)cc4)c4ccnn34)C2)c1 [Compound I-163, 4-(4-chlorobenzyl)-7-(3-cyanobenzyl)-6,7,8,9-tetrahydropyrazolo[1,5-a]pyrido[3,4-e]pyrimidine-5(4H)-one] | 1 to 10 | 1 to 10 | – |
| O=c1c2c(c3cccnc3n1Cc1cc(Cl)ccn1)CCN(Cc1ccccc1)C2 [Compound I-64, 3-benzyl-6-((4-chloropyridin-2-yl)methyl)-2,3,4,6-tetrahydropyrido[3,4-c][1,8]naphthyridine-5-(1H)-one] | – | 10 to 100 | 1 to 10 |
| N#Cc1cccc(CN2CCc3c(c(=O)n(Cc4ccccc4)c4ncccc34)C2)c1 [Compound I-82, 6-benzyl-3-(3-cyanobenzyl)-2,3,4,6-tetrahydropyrido[3,4-c][1,8]naphthyridine-5-(1H)-one] | < 1 | < 1 | – |
| Cc1cccc(CN2CCc3c(c(=O)n(Cc4ccc(C(F)(F)F)cc4)c4nccn34)C2)c1 [Compound I-130, 7-(3-methylbenzyl)-4-(4-trifluoromethylbenzyl)-6,7,8,9-tetrahydroimidazo[1,2-a]pyrido[3,4-e]pyrimidine-5(4H)-one] | < 1 | < 1 | – |
| N#Cc1cccc(CN2CCc3c(c(=O)n(Cc4ccc(C(F)(F)F)cc4)c4ccnn34)C2)c1 [Compound I-160, 4-(4-trifluoromethylbenzyl)-7-(3-cyanobenzyl)-6,7,8,9-tetrahydropyrazolo[1,5-a]pyrido[3,4-e]pyrimidine-5(4H)-one] | 1 to 10 | 1 to 10 | – |
| O=c1c2c(c3cccnc3n1Cc1ccccc1)CCN(Cc1ccc(Br)cc1)C2 [Compound I-20, 6-benzyl-3-(4-bromobenzyl)-2,3,4,6-tetrahydropyrido[3,4-c][1,8]naphthyridine-5-(1H)-one] | < 1 | 1 to 10 | – |
| CCc1ccc(Cn2c(=O)c3c(c4cccnc42)CCN(Cc2ccccc2)C3)cc1 [Compound I-56, 3-benzyl-6-(4-ethylbenzyl)-2,3,4,6-tetrahydropyrido[3,4-c][1,8]naphthyridine-5-(1H)-one] | < 1 | < 1 | – |
| N#Cc1cccc(CN2CCc3c(c(=O)n(Cc4ccc(Br)cc4)c4ncccc34)C2)c1 [Compound I-86, 6-(4-bromobenzyl)-3-(3-cyanobenzyl)-2,3,4,6-tetrahydropyrido[3,4-c][1,8]naphthyridine-5-(1H)-one] | < 1 | < 1 | – |
| O=c1c2c(c3cccnc3n1Cc1ccccc1)CCN(CC1CCCC1)C2 [Compound I-3, 6-benzyl-3-(cyclopentylmethyl)-2,3,4,6-tetrahydropyrido[3,4-c][1,8]naphthyridine-5-(1H)-one] | 1 to 10 | 10 to 100 | – |
| O=c1c2c(n3nccc3n1Cc1ccc(C(F)(F)F)cc1)CCN(Cc1ccccc1)C2 [Compound I-159, 4-(4-trifluoromethylbenzyl)-7-benzyl-6,7,8,9-tetrahydropyrazolo[1,5-a]pyrido[3,4-e]pyrimidine-5(4H)-one] | 1 to 10 | 1 to 10 | – |
| Cc1ccc(Cn2c(=O)c3c(n4ccnc24)CCN(Cc2cccc(C#N)c2)C3)cc1 [Compound I-136, 7-(3-cyanobenzyl)-4-(4-methylbenzyl)-6,7,8,9-tetrahydroimidazo[1,2-a]pyrido[3,4-e]pyrimidine-5(4H)-one] | < 1 | < 1 | – |
| O=c1c2c(n3ccnc3n1Cc1ccc(F)cc1)CCN(Cc1cccc(Cl)c1)C2 [Compound I-114, 7-(3-chlorobenzyl)-4-(4-fluorobenzyl)-6,7,8,9-tetrahydroimidazo[1,2-a]pyrido[3,4-e]pyrimidine-5(4H)-one] | < 1 | < 1 | – |
| O=c1c2c(n3ncnc3n1Cc1ccc(Cl)cc1)CCN(Cc1ccccc1)C2 [Compound I-152, 4-(4-chlorobenzyl)-7-benzyl-6,7,8,9-tetrahydropyrido[3,4-e][1,2,4]triazolo[1,5-a]pyrimidine-5(4H)-one] | 1 to 10 | 1 to 10 | – |
| O=c1c2c(n3ccnc3n1Cc1ccc(Cl)cc1)CCN(Cc1cccc(Cl)c1)C2 [Compound I-119, 7-(3-chlorobenzyl)-4-(4-chlorobenzyl)-6,7,8,9-tetrahydroimidazo[1,2-a]pyrido[3,4-e]pyrimidine-5(4H)-one] | < 1 | < 1 | – |
| O=c1c2c(n3ccnc3n1Cc1ccc(C(F)(F)F)cc1)CCN(Cc1cccc(Cl)c1)C2 [Compound I-129, 7-(3-chlorobenzyl)-4-(4-trifluoromethylbenzyl)-6,7,8,9-tetrahydroimidazo[1,2-a]pyrido[3,4-e]pyrimidine-5(4H)-one] | < 1 | – | – |
